# Experimental data: patent publication US20150320704A1, “COMPOSITIONS AND METHODS FOR TREATMENT OF HAIR LOSS” (DS Healthcare Group, Inc., priority 2014, published 2015)
# Tests used:
# [1] = tested on: male subjects experiencing active thinning-hair; assay: Hair regrowth study, double blind, daily topical application for 90 days; assay type: in vivo, human
# Protocol: A double blind study was performed on male subjects between the ages of 25 and 55 years who had been experiencing active thinning-hair. […] A global photograph of each subject was taken from the crown area and a second photograph was taken of the top of the head to track frontal areas. […] In addition to the pimarene compounds, the formulations contained pine resin compounds that are not calcium channel opening agents, including abietic acid, neoabietic acid, dehydroabietic acid, and palustric acid. The target sites of each subject were monitored over the 90 day period and photographs were again obtained at the end of this period and compared to those at baseline.
# The formulation lacks a pine resin compound other than a pimarene compound.
# humans = conditions: cited from earlier work
# balding macaques = conditions: topical application, 20-week treatment period; cited from earlier work
# [2] = Example 3: study of Example 1 repeated, formulation of vehicle and a potassium channel opening agent other than pimarene compounds
# [3] = Example 2: study of Example 1 repeated, formulation of vehicle and one pimarene compound, lacking other pine resin compounds
molecule,measurement,setting,value
CC(C(O)c1ccc(O)cc1)N1CCC(Cc2ccccc2)CC1 (centres unmarked) [ifenprodil],"hair thickness and growth, outcome of treatment",[1]; [2],improvement in hair thickness and growth in a majority of the subjects
C=C[C@@]1(C)C=C2CC[C@@H]3[C@](C)(CCC[C@@]3(C)C(=O)O)[C@H]2CC1 [pimaric acid],"hair thickness and growth, outcome of treatment",[1]; [3],improvement in hair thickness and growth in a majority of the subjects
dihydropimaric acid,"hair thickness and growth, outcome of treatment",[1]; [3],improvement in hair thickness and growth in a majority of the subjects
CC(N/C(=N\C#N)Nc1ccncc1)C(C)(C)C (centres unmarked) [pinacidil],hypertrichosis,humans,cause hypertrichosis
COc1ccc(Cl)cc1[C@]1(F)C(=O)Nc2cc(C(F)(F)F)ccc21 [BIAS-204352],"hair thickness and growth, outcome of treatment",[1]; [2],improvement in hair thickness and growth in a majority of the subjects
CC1=NS(=O)(=O)c2cc(Cl)ccc2N1 [diazoxide],hypertrichosis,humans,cause hypertrichosis
CC[C@@]1(C)CC[C@H]2C(=CCC3[C@]2(C)CCC[C@]3(C)C(=O)O)C1 (some centres unmarked) [dihydroisopimaric acid],"hair thickness and growth, outcome of treatment",[1]; [3],improvement in hair thickness and growth in a majority of the subjects
C=C[C@@]1(C)CC[C@H]2C(=CC[C@@H]3[C@]2(C)CCC[C@@]3(C)C(=O)O)C1 [isopimaric acid],"hair thickness and growth, outcome of treatment",[1]; [3],improvement in hair thickness and growth in a majority of the subjects
"CNC(=S)[C@]1(c2cccnc2)CCCC[S+]1[O-] (some centres unmarked) [RP-49,356]",scalp hair growth,balding macaques,not effective in promoting hair growth
CC[C@@]1(C)CC[C@H]2C(=CC[C@H]3[C@](C)(CO)CCC[C@]23C)C1 [dihydroisopimarinol],"hair thickness and growth, outcome of treatment",[1]; [3],improvement in hair thickness and growth in a majority of the subjects
CC1(C)Oc2ccc(C#N)cc2C(N2CCCC2=O)C1O (centres unmarked) [cromakalin],scalp hair growth,balding macaques,stimulated hair growth
CCC(C)(C)N=C(NC#N)Nc1cccnc1 [P-1075],scalp hair growth,balding macaques,stimulated hair growth
FC(F)(F)C(Cl)Br (centres unmarked) [halothane],"hair thickness and growth, outcome of treatment",[1]; [2],improvement in hair thickness and growth in a majority of the subjects
C=C[C@]1(C)C=C2CC[C@@H]3[C@](C)(CCC[C@@]3(C)C(=O)O)[C@H]2CC1 [sandaracopimaric acid],"hair thickness and growth, outcome of treatment",[1]; [3],improvement in hair thickness and growth in a majority of the subjects
